Assays:
Assay in all cases: relative viability (nuclei count vs DMSO), 5 days (fraction); higher = more cells survive
[1] = compound: CCC1=CN=CN=C1N2CCN(CC2)CC3=NC4=C(N3)C=C(C=C4)C(F)(F)F + C[C@]1(O)C[C@@H](c2nc(-c3ccc4ccc(-c5ccccc5)nc4c3)c3c(N)nccn32)C1 [Linsitinib] (partner 1 µM)
Procedure, shortened: (§1)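 Each reported value is a median over duplicate plates. It expresses relative viability: treated-well nuclei count divided by vehicle-well nuclei count. Lung cancer cell lines in 1536-well plates were dosed by pin tool a day after seeding, alone with one drug or with a fixed anchor-drug dose plus five library-drug doses (not always all listed) in √10 steps, and nuclei were counted after 5 days.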

[2] = compound: CCn1c(-c2nonc2N)nc2cnc(Oc3cccc(NC(=O)c4ccc(OCCN5CCOCC5)cc4)c3)cc21 + CC1(C)CCC(c2ccc(Cl)cc2)=C(CN2CCN(c3ccc(C(=O)NS(=O)(=O)c4ccc(N[C@H](CCN5CCOCC5)CSc5ccccc5)c(S(=O)(=O)C(F)(F)F)c4)cc3)CC2)C1 [Navitoclax] (partner 0.5 µM)
Procedure, shortened: as §1

[3] = compound: N=C1NC(=O)/C(=C/c2ccc(O)cc2)S1 [Mirin] + COc1cc2c(Oc3ccc(NC(=O)C4(C(=O)Nc5ccc(F)cc5)CC4)cc3F)ccnc2cc1OCCCN1CCOCC1 [Foretinib] (partner 0.25 µM)
Procedure, shortened: as §1

[4] = compound: N=C1NC(=O)/C(=C/c2ccc(O)cc2)S1 [Mirin] + Cc1nc(NC(=O)N2CCC[C@H]2C(N)=O)sc1-c1ccnc(C(C)(C)C(F)(F)F)c1 [Alpelisib] (partner 2 µM)
Procedure, shortened: as §1

Cell Line	relative viability ([1]; first compound 0.04 µM)	relative viability ([1]; first compound 0.1265 µM)	relative viability ([1]; first compound 0.4 µM)	relative viability ([1]; first compound 1.265 µM)	relative viability ([1]; first compound 4 µM)	relative viability ([2]; first compound 0.04 µM)	relative viability ([2]; first compound 0.1265 µM)	relative viability ([2]; first compound 0.4 µM)	relative viability ([2]; first compound 1.265 µM)	relative viability ([2]; first compound 4 µM)	relative viability ([3]; first compound 0.25 µM)	relative viability ([3]; first compound 0.7906 µM)	relative viability ([3]; first compound 2.5 µM)	relative viability ([3]; first compound 7.906 µM)	relative viability ([3]; first compound 25 µM)	relative viability ([4]; first compound 0.25 µM)	relative viability ([4]; first compound 0.7906 µM)	relative viability ([4]; first compound 2.5 µM)	relative viability ([4]; first compound 7.906 µM)	relative viability ([4]; first compound 25 µM)
SW 1573	0.574	0.683	0.862	0.777	0.866	0.911	1.19	0.807	0.562	0.223	0.82	0.822	0.892	0.76	0.981	0.529	0.72	0.794	0.665	0.508
NCI-H2085	0.911	0.787	0.982	0.823	0.793	1.39	1.08	1.02	0.937	1.01	0.948	0.999	0.941	1.1	1	0.908	1.07	0.97	0.843	0.674
NCI-H520	0.908	0.93	0.886	0.773	0.861	1.21	1.13	0.955	0.555	0.385	0.742	0.784	0.874	0.874	0.439	1.01	0.834	0.883	0.665	0.522
Calu-6	0.883	0.851	0.871	0.819	1.02	0.835	0.759	0.64	0.353	0.306	0.902	1.03	0.918	0.903	0.865	0.922	1.07	1.02	0.831	0.769
SK-LU-1	1.28	1.24	1.32	1	1.06	1.07	0.619	0.383	0.296	0.229	0.801	0.924	0.863	0.728	0.731	1.12	0.885	1.07	0.698	0.53
LCLC-103H	1.11	1.13	0.999	1.17	1.2						0.909	0.825	0.839	0.955	0.8	0.917	1.02	0.908	1.05	1.1
HCC-15	0.945	0.801	0.815	0.812	0.846	0.876	0.636	0.693	0.586	0.708	1.1	1	1.06	0.819	0.882	0.851	0.859	0.928	0.798	0.593
H3255	0.937	0.956	0.904	0.825	0.772	0.675	0.551	0.454	0.329	0.35	1.11	0.825	0.929	0.676	0.998	0.719	0.814	0.674	0.576	0.92
NCI-H1792	0.522	0.543	0.497	0.424	0.511	0.732	0.58		0.348	0.518						0.743	0.691	0.81	0.613	0.641
NCI-H1563	1.27	1.24	1.27	1.18	1.1						0.962	0.974	0.865	1.03	0.875	0.918	0.958	0.92	0.937	0.833
NCI-H647	1.33	1.18		1.24	1.31	1.06	0.828	0.89	0.517	0.595	1.4	1.27	1.14	1.32	0.946	1.24	1.36	1.15	1.22	0.657
NCI-H2126	0.666	0.696	0.725	0.614	0.733	0.87	0.822	0.825	0.917	0.84	1.35	1.02	1.31	1.16	1.13	0.758	0.724	0.784	0.679	0.688
HCC-44	0.652	0.648	0.666	0.643	0.634	0.944	1.07	1.14	1	0.963						0.852	0.879	0.806	0.762	0.705
NCI-H650	0.7	1.03	1.01	0.864	0.804						0.834	1.07	1.06		1.13	1.04		1.09		1.1
NCI-H661	0.711	0.629	0.622		0.483						1.05	1.06	1.02	1.07	0.975	0.657	0.554	0.612	0.323	0.602
NCI-H358	0.809	0.656	0.656	0.657	0.607						0.734	0.742	0.739	0.565	0.406	0.822	0.876	0.943	0.723	0.461
ChaGo-K-1						1.42	0.876	0.762		0.712	0.963	0.921	0.965	0.841	0.652					
ABC-1	0.873	0.777	0.676	0.631	0.831						1.35	1.08	0.971	1.03	0.587	1.34	1.14	1.09	1.1	0.633
NCI-H2170						0.392	0.602	0.539	0.626	0.633	1.05	1	1.02	0.928	0.98	0.792	0.83	0.909	0.714	0.699

Reference: the supplement of paper PMC10307832
